# Experimental data published in the CheMixHub viscosity set.
# ± gives the uncertainty stated by the source.
# Assay: xn = mol fraction of the nth substance listed
smiles,measurement,setting,value
ClC(Cl)Cl + c1ccccc1,viscosity,"293.15 K, 101 kPa, x1 = 0.101",0.627 ± 0.013 mPa·s
same,viscosity,"293.15 K, 101 kPa, x1 = 0.245",0.606 ± 0.012 mPa·s
same,viscosity,"293.15 K, 101 kPa, x1 = 0.433",0.593 ± 0.012 mPa·s
same,viscosity,"293.15 K, 101 kPa, x1 = 0.653",0.582 ± 0.012 mPa·s
same,viscosity,"298 K, 101 kPa, x2 = 0.1452",0.5431 ± 0.0079 mPa·s
same,viscosity,"298 K, 101 kPa, x2 = 0.2124",0.5457 ± 0.0079 mPa·s
same,viscosity,"298 K, 101 kPa, x2 = 0.2765",0.5478 ± 0.008 mPa·s
same,viscosity,"298 K, 101 kPa, x2 = 0.3958",0.5532 ± 0.008 mPa·s
same,viscosity,"298 K, 101 kPa, x2 = 0.5047",0.559 ± 0.0081 mPa·s
same,viscosity,"298 K, 101 kPa, x2 = 0.5556",0.562 ± 0.0081 mPa·s
same,viscosity,"298 K, 101 kPa, x2 = 0.6045",0.566 ± 0.0082 mPa·s
same,viscosity,"298 K, 101 kPa, x2 = 0.6513",0.5702 ± 0.0082 mPa·s
same,viscosity,"298 K, 101 kPa, x2 = 0.6963",0.5751 ± 0.0083 mPa·s
same,viscosity,"298 K, 101 kPa, x2 = 0.781",0.5844 ± 0.0084 mPa·s
same,viscosity,"298 K, 101 kPa, x2 = 0.8594",0.5943 ± 0.0085 mPa·s
same,viscosity,"298 K, 101 kPa, x2 = 0.8965",0.6002 ± 0.0086 mPa·s
same,viscosity,"298 K, 101 kPa, x2 = 0.9322",0.6044 ± 0.0086 mPa·s
same,viscosity,"298.15 K, 101 kPa, x1 = 0.0974",0.587 ± 0.016 mPa·s
same,viscosity,"298.15 K, 101 kPa, x1 = 0.1964",0.581 ± 0.015 mPa·s
same,viscosity,"298.15 K, 101 kPa, x1 = 0.2012",0.5935 ± 0.0075 mPa·s
same,viscosity,"298.15 K, 101 kPa, x1 = 0.3014",0.5886 ± 0.0074 mPa·s
same,viscosity,"298.15 K, 101 kPa, x1 = 0.3582",0.5866 ± 0.0074 mPa·s
same,viscosity,"298.15 K, 101 kPa, x1 = 0.4568",0.5805 ± 0.0073 mPa·s
same,viscosity,"298.15 K, 101 kPa, x1 = 0.4857",0.5773 ± 0.0073 mPa·s
same,viscosity,"298.15 K, 101 kPa, x1 = 0.6022",0.57 ± 0.0072 mPa·s
same,viscosity,"298.15 K, 101 kPa, x1 = 0.6861",0.557 ± 0.015 mPa·s
same,viscosity,"298.15 K, 101 kPa, x1 = 0.7542",0.5603 ± 0.0071 mPa·s
same,viscosity,"298.15 K, 101 kPa, x1 = 0.8971",0.546 ± 0.015 mPa·s
same,viscosity,"298.15 K, 101 kPa, x2 = 0.1029",0.546 ± 0.007 mPa·s
same,viscosity,"298.15 K, 101 kPa, x2 = 0.1297",0.5454 ± 0.0056 mPa·s
same,viscosity,"298.15 K, 101 kPa, x2 = 0.2",0.525 ± 0.0053 mPa·s
same,viscosity,"298.15 K, 101 kPa, x2 = 0.2983",0.5512 ± 0.0056 mPa·s
same,viscosity,"298.15 K, 101 kPa, x2 = 0.3141",0.557 ± 0.007 mPa·s
same,viscosity,"298.15 K, 101 kPa, x2 = 0.3724",0.5535 ± 0.0056 mPa·s
same,viscosity,"298.15 K, 101 kPa, x2 = 0.4",0.541 ± 0.0055 mPa·s
same,viscosity,"298.15 K, 101 kPa, x2 = 0.4086",0.5544 ± 0.0056 mPa·s
same,viscosity,"298.15 K, 101 kPa, x2 = 0.49",0.558 ± 0.0057 mPa·s
same,viscosity,"298.15 K, 101 kPa, x2 = 0.5395",0.5613 ± 0.0057 mPa·s
same,viscosity,"298.15 K, 101 kPa, x2 = 0.6",0.555 ± 0.0056 mPa·s
same,viscosity,"298.15 K, 101 kPa, x2 = 0.6023",0.5633 ± 0.0057 mPa·s
same,viscosity,"298.15 K, 101 kPa, x2 = 0.6707",0.5656 ± 0.0057 mPa·s
same,viscosity,"298.15 K, 101 kPa, x2 = 0.6862",0.5668 ± 0.0057 mPa·s
same,viscosity,"298.15 K, 101 kPa, x2 = 0.7414",0.5709 ± 0.0058 mPa·s
same,viscosity,"298.15 K, 101 kPa, x2 = 0.8",0.574 ± 0.0059 mPa·s
same,viscosity,"298.15 K, 101 kPa, x2 = 0.8037",0.581 ± 0.008 mPa·s
same,viscosity,"298.15 K, 101 kPa, x2 = 0.8801",0.5866 ± 0.0059 mPa·s
same,viscosity,"298.15 K, 101 kPa, x2 = 0.9029",0.587 ± 0.008 mPa·s
same,viscosity,"298.15 K, 101 kPa, x2 = 0.9214",0.589 ± 0.0059 mPa·s
same,viscosity,"298.15 K, 101 kPa, x2 = 0.962",0.5949 ± 0.006 mPa·s
same,viscosity,"298.15 K, 101.33 kPa, x1 = 0.0672",0.5938 ± 0.0059 mPa·s
same,viscosity,"298.15 K, 101.33 kPa, x1 = 0.1508",0.5847 ± 0.0059 mPa·s
same,viscosity,"298.15 K, 101.33 kPa, x1 = 0.2151",0.5795 ± 0.0058 mPa·s
same,viscosity,"298.15 K, 101.33 kPa, x1 = 0.3057",0.5722 ± 0.0058 mPa·s
same,viscosity,"298.15 K, 101.33 kPa, x1 = 0.5108",0.5613 ± 0.0057 mPa·s
same,viscosity,"298.15 K, 101.33 kPa, x1 = 0.6489",0.559 ± 0.0056 mPa·s
same,viscosity,"298.15 K, 101.33 kPa, x1 = 0.8164",0.5493 ± 0.0056 mPa·s
same,viscosity,"298.15 K, 101.33 kPa, x1 = 0.9301",0.5403 ± 0.0055 mPa·s
same,viscosity,"303.15 K, 101 kPa, x1 = 0.101",0.548 ± 0.011 mPa·s
same,viscosity,"303.15 K, 101 kPa, x1 = 0.245",0.533 ± 0.011 mPa·s
same,viscosity,"303.15 K, 101 kPa, x1 = 0.433",0.527 ± 0.011 mPa·s
same,viscosity,"303.15 K, 101 kPa, x1 = 0.653",0.52 ± 0.011 mPa·s
same,viscosity,"308 K, 101 kPa, x2 = 0.1452",0.4917 ± 0.0073 mPa·s
same,viscosity,"308 K, 101 kPa, x2 = 0.2124",0.4939 ± 0.0073 mPa·s
same,viscosity,"308 K, 101 kPa, x2 = 0.2765",0.4958 ± 0.0073 mPa·s
same,viscosity,"308 K, 101 kPa, x2 = 0.3958",0.5001 ± 0.0074 mPa·s
same,viscosity,"308 K, 101 kPa, x2 = 0.5047",0.5049 ± 0.0075 mPa·s
same,viscosity,"308 K, 101 kPa, x2 = 0.5556",0.5077 ± 0.0075 mPa·s
same,viscosity,"308 K, 101 kPa, x2 = 0.6045",0.5108 ± 0.0075 mPa·s
same,viscosity,"308 K, 101 kPa, x2 = 0.6513",0.5136 ± 0.0075 mPa·s
same,viscosity,"308 K, 101 kPa, x2 = 0.6963",0.5168 ± 0.0076 mPa·s
same,viscosity,"308 K, 101 kPa, x2 = 0.781",0.5225 ± 0.0077 mPa·s
same,viscosity,"308 K, 101 kPa, x2 = 0.8594",0.5282 ± 0.0077 mPa·s
same,viscosity,"308 K, 101 kPa, x2 = 0.8965",0.5311 ± 0.0078 mPa·s
same,viscosity,"308 K, 101 kPa, x2 = 0.9322",0.5336 ± 0.0078 mPa·s
same,viscosity,"313.15 K, 101 kPa, x1 = 0.101",0.483 ± 0.01 mPa·s
same,viscosity,"313.15 K, 101 kPa, x1 = 0.245",0.473 ± 0.01 mPa·s
same,viscosity,"313.15 K, 101 kPa, x1 = 0.433",0.47 ± 0.01 mPa·s
same,viscosity,"313.15 K, 101 kPa, x1 = 0.653",0.471 ± 0.01 mPa·s
same,viscosity,"318 K, 101 kPa, x2 = 0.1452",0.451 ± 0.0068 mPa·s
same,viscosity,"318 K, 101 kPa, x2 = 0.2124",0.452 ± 0.0068 mPa·s
same,viscosity,"318 K, 101 kPa, x2 = 0.2765",0.4532 ± 0.0068 mPa·s
same,viscosity,"318 K, 101 kPa, x2 = 0.3958",0.4558 ± 0.0069 mPa·s
same,viscosity,"318 K, 101 kPa, x2 = 0.5047",0.4587 ± 0.0069 mPa·s
same,viscosity,"318 K, 101 kPa, x2 = 0.5556",0.4602 ± 0.0069 mPa·s
same,viscosity,"318 K, 101 kPa, x2 = 0.6045",0.4618 ± 0.0069 mPa·s
same,viscosity,"318 K, 101 kPa, x2 = 0.6513",0.4635 ± 0.007 mPa·s
same,viscosity,"318 K, 101 kPa, x2 = 0.6963",0.4652 ± 0.007 mPa·s
same,viscosity,"318 K, 101 kPa, x2 = 0.781",0.4685 ± 0.007 mPa·s
same,viscosity,"318 K, 101 kPa, x2 = 0.8594",0.472 ± 0.0071 mPa·s
same,viscosity,"318 K, 101 kPa, x2 = 0.8965",0.4738 ± 0.0071 mPa·s
same,viscosity,"318 K, 101 kPa, x2 = 0.9322",0.4755 ± 0.0071 mPa·s
same,viscosity,"323.15 K, 101 kPa, x1 = 0.101",0.431 ± 0.009 mPa·s
same,viscosity,"323.15 K, 101 kPa, x1 = 0.245",0.426 ± 0.009 mPa·s
same,viscosity,"323.15 K, 101 kPa, x1 = 0.433",0.43 ± 0.009 mPa·s
